Like-named read-outs stand apart in the source and are kept apart here.
Experiments:
[1] = target: wild type PRC2 (wtPRC2) complex (Homo sapiens, UniProt O75530); assay: EED LC-MS assay (SAH production by PRC2); assay type: biochemical
Summary of the method: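 LC-MS/MS readout of SAH (d4-SAH standard) after TFA quench gives PRC2 activity, normalized to controls and fitted to dose-response for IC50. Reaction: 12 nM EZH2/SUZ12/EED/Rbap48/AEBP complex, 1 μM SAM, 1.5 μM H3[21-44] peptide, 120 min rt, 20 min compound preincubation.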

EED (1-441)-His protein = target: T1, EED (1-441)-His protein (Homo sapiens, UniProt O75530); assay: EED-H3K27Me3 peptide competition binding assay by AlphaScreen
T1 construct: 30 nM EED (1-441)-His protein
Summary of the method: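 Serially diluted compound (12 points, 3-fold) incubated 20 min with 30 nM EED(1-441)-His and 15 nM biotin-H3K27Me3(19-33) peptide in 25 mM HEPES pH 8, 0.02% Tween-20, 0.5% BSA. Ni-chelate acceptor/streptavidin donor beads (10 μg/mL each) added, 1 h rt dark; 615 nm emission normalized to controls, dose-response fit for IC50.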

[2] = test system: H3K27 methylation in G401 cell; assay: ELISA (H3K27 methylation) assay in G401 cells; assay type: cell-based, human; conditions: Homo sapiens
Summary of the method: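 IC50 from dose-response fit of percent inhibition relative to DMSO, using H3K27me3/me2 ELISA signal (ECL) normalized to histone H3. Histones HCl-extracted after 48 h compound exposure of G401 cells at up to 20 μM, 8- or 12-point 3-fold series.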

[3] = PRC2 LC-MS assay, read-out: (b) IC50 EED LC-MS Qualified
[4] = EED-H3K27Me3 peptide competition, AlphaScreen, read-out: (a) IC50 EED Alphascreen binding Qualified
[5] = G-401, H3K27 methylation ELISA, read-out: (c) IC50 ELISA Qualified
[6] = read-out: (b) IC50 EED LC-MS Qualified
[7] = read-out: (a) IC50 EED Alphascreen binding Qualified
[8] = G-401, read-out: (c) IC50 ELISA Qualified
[9] = read-out: (b) IC50, EED LC-MS Qualified
[10] = read-out: (a) IC50, EED Alphascreen binding Qualified
[11] = G-401, read-out: (c) IC50, ELISA Qualified

Chain of wild type PRC2 (wtPRC2) complex (O75530 whole entry): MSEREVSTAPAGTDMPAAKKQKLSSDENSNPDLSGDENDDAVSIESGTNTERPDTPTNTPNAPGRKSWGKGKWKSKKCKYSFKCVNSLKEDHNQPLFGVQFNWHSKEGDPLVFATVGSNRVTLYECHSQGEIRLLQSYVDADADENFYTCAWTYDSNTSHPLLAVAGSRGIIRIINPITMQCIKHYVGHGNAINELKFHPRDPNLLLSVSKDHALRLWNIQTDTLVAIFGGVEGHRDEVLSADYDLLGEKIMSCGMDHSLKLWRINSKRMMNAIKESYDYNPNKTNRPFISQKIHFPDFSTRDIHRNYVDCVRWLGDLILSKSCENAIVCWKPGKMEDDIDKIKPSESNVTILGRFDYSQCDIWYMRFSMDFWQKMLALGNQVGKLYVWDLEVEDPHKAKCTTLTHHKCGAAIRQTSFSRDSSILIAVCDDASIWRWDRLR
Chain of wild type PRC2 (wtPRC2) complex (Q15910 whole entry partner): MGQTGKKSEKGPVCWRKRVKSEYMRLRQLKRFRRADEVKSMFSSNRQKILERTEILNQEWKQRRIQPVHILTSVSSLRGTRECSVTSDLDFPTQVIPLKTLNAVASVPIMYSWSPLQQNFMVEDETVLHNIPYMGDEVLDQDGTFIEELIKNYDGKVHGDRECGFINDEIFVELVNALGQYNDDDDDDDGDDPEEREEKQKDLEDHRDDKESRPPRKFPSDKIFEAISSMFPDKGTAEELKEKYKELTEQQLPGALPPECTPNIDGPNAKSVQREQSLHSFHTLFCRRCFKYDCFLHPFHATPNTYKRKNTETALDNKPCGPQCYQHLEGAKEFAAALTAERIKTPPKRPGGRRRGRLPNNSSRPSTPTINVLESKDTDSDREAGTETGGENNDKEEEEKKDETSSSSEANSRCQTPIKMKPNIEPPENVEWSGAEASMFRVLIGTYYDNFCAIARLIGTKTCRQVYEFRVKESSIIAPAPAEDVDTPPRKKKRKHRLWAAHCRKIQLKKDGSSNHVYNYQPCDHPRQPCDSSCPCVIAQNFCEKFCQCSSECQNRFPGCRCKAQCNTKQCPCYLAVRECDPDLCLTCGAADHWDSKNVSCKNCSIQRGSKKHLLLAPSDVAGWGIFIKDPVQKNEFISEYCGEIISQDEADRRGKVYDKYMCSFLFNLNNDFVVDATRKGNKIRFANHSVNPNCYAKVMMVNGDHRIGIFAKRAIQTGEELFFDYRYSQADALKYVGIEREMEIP
Chain of wild type PRC2 (wtPRC2) complex (Q15022 whole entry partner): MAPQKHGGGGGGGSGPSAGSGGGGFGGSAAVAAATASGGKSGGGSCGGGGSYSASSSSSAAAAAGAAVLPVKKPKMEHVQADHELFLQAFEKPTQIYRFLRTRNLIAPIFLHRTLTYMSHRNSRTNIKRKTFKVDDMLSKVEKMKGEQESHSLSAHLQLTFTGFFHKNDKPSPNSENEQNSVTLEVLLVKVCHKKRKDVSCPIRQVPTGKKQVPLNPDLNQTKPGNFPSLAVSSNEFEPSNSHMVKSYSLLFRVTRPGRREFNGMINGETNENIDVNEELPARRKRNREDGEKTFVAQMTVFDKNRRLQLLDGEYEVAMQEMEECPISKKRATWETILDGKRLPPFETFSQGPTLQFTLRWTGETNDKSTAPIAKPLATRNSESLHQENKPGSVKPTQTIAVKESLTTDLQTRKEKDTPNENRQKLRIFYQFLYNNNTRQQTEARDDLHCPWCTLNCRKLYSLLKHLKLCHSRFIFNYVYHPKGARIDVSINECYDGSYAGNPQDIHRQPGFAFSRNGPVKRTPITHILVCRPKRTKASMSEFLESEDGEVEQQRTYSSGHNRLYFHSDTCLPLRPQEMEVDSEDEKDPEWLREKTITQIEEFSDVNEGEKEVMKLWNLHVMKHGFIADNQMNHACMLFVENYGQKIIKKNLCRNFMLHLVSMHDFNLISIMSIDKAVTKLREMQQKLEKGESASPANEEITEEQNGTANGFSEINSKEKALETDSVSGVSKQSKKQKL
Chain of wild type PRC2 (wtPRC2) complex (Q09028 whole entry partner): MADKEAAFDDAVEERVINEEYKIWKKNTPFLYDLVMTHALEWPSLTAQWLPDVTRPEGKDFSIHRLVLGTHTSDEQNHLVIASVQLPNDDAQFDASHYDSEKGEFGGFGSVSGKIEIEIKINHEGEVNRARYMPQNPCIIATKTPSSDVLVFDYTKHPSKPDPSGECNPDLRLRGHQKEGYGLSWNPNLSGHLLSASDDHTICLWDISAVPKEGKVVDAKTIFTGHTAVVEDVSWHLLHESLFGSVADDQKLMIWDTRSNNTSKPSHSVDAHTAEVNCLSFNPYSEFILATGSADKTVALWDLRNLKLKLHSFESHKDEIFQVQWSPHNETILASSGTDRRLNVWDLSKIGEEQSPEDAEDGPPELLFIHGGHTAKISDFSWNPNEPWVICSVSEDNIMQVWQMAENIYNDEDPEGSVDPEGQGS
Chain of wild type PRC2 (wtPRC2) complex (Q6ZN18 whole entry partner): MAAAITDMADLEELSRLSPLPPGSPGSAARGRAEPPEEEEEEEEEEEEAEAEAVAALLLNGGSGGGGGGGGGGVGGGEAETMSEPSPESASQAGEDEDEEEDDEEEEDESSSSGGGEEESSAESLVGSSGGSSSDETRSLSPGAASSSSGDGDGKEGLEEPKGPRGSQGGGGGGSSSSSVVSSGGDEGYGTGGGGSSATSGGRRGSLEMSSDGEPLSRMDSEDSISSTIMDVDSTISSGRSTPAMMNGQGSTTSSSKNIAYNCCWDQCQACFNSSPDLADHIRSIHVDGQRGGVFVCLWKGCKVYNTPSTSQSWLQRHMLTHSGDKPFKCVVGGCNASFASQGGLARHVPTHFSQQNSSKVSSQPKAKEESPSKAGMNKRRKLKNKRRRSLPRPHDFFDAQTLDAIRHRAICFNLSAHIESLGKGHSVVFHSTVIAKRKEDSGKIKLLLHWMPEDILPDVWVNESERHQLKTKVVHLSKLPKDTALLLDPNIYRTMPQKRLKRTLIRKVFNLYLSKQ
T1 sequence (O75530 whole entry): as the sequence (O75530 whole entry) above

SMILES | IC50 [1, 3] | IC50 (EED (1-441)-His protein; [4]) | IC50 [2, 5] | IC50 [1, 9] | IC50 (EED (1-441)-His protein; [10]) | IC50 [2, 11] | also measured
COc1cc(F)cc(F)c1CNc1ccc(-c2cnccc2C)c2nncn12 [Example 253, N-(2,4-difluoro-6-methoxybenzyl)-8-(4-methylpyridin-3-yl)-[1,2,4]triazolo[4,3-a] pyridin-5-amine] | 289 nM | 66.2 nM | 59.2 nM |  |  |  | 
COc1cccc(F)c1CNc1ccc(-c2cnc(C#N)cc2C)c2nncn12 [Example 251, 5-(5-((2-fluoro-6-methoxybenzyl)amino)-[1,2,4]triazolo[4,3-a]pyridin-8-yl)-4-methylpicolinonitrile] | 41.8 nM | 15.7 nM | 8.6 nM |  |  |  | 
COc1cccc(F)c1CNc1ccc(-n2cc(C)cn2)c2nncn12 [Example 353, N-(2-fluoro-6-methoxybenzyl)-8-(4-methyl-1H-pyrazol-1-yl)-[1,2,4]triazolo [4,3-a]pyridin-5-amine] |  |  |  |  |  |  | IC50 [1, 6]: 156 nM; IC50 (EED (1-441)-His protein; [7]): 25.8 nM; IC50 [2, 8]: 39.3 nM
COc1ncccc1CNc1ccc(-c2cnc(C)nc2C)c2nncn12 [Example 348, 8-(2,4-dimethylpyrimidin-5-yl)-N-((2-methoxypyridin-3-yl)methyl)-[1,2,4]triazolo [4,3-a]pyridin-5-amine] |  |  |  |  |  |  | IC50 [1, 6]: 209 nM; IC50 (EED (1-441)-His protein; [7]): 85.1 nM; IC50 [2, 8]: 45.5 nM
COc1cccc(F)c1CNc1ccc(-c2ccc(N(C)S(C)(=O)=O)cc2)c2nncn12 [Example 154, N-(4-(5-((2-fluoro-6-methoxybenzyl)amino)-[1,2,4]triazolo[4,3-a]pyridin-8-yl)phenyl)-N-methyl methanesulfonamide] |  |  |  | 83.4 nM | 4.5 nM | 4.9 nM | 
COc1cccc(F)c1CNc1ccc(-c2cnc(N(C)C)nc2C)c2nncn12 [Example 260, 8-(2-(dimethylamino)-4-methylpyrimidin-5-yl)-N-(2-fluoro-6-methoxybenzyl)-[1,2,4]triazolo[4,3-a]pyridin-5-amine] | 45.9 nM | 35.4 nM | 21.7 nM |  |  |  | 
COc1ccccc1CNc1ccc(-c2ccncc2)c2nncn12 [Example 24, N-(2-methoxybenzyl)-8-(pyridin-4-yl)-[1,2,4] triazolo[4,3-a]pyridin-5-amine] |  |  |  | 92.1 nM | 46.4 nM | 47.8 nM | 
COc1cc(F)cc(F)c1CNc1ccc(-c2cccnc2C)c2nncn12 [Example 239, N-(2,4-difluoro-6-methoxybenzyl)-8-(2-methylpyridin-3-yl)-[1,2,4]triazolo[4,3-a]pyridin-5-amine] | 39.6 nM | 24.6 nM | 20 nM |  |  |  | 
COc1cccc(F)c1CNc1ccc(-c2ccc(N(C)C)nc2)c2nncn12 [Example 174, 8-(6-(dimethylamino)pyridin-3-yl)-N-(2-fluoro-6-methoxybenzyl)-[1,2,4]triazolo[4,3-a] pyridin-5-amine] | 136 nM | 47.2 nM | 76.7 nM |  |  |  | 
COc1ccccc1CNc1ccc(-c2cc(F)c(CN3CCCCC3)c(F)c2)c2nncn12 [Example 44, 8-(3,5-difluoro-4-(piperidin-1-ylmethyl)phenyl)-N-(2-methoxybenzyl)-[1,2,4] triazolo[4,3-a]pyridin-5-amine] |  |  |  | 1100 nM | 74.8 nM | 112 nM | 

Further lines, with some results ahead:

IC50 [1, 3] | IC50 (EED (1-441)-His protein; [4]) | IC50 [2, 5] | IC50 [1, 9] | IC50 (EED (1-441)-His protein; [10]) | IC50 [2, 11] | SMILES | also measured
 |  |  | 3190 nM | 91.5 nM | 374 nM | COc1ccccc1CNc1ccc(-c2cnc(OC)c(F)c2)c2nncn12 [Example 50, 8-(5-fluoro-6-methoxypyridin-3-yl)-N-(2-methoxybenzyl)-[1,2,4]triazolo[4,3-a] pyridin-5-amine] | 
 |  |  | 491 nM | 55.7 nM | 815 nM | COc1cc(F)ccc1CNc1ccc(-c2ccc(S(C)(=O)=O)cc2)c2nncn12 [Example 83, N-(4-fluoro-2-methoxybenzyl)-8-(4-(methylsulfonyl)phenyl)-[1,2,4]triazolo[4,3-a]pyridin-5-amine] | 
93.1 nM | 55.2 nM | 34.8 nM |  |  |  | COc1cccc(F)c1CNc1ccc(-c2cnn(C)c2C)c2nncn12 [Example 188, 8-(1,5-dimethyl-1H-pyrazol-4-yl)-N-(2-fluoro-6-methoxybenzyl)-[1,2,4]triazolo[4,3-a] pyridin-5-amine] | 
